Assay results reported in article PMC5761851, “Application of a phenotypic drug discovery strategy to identify biological and chemical starting points for inhibition of TSLP production in lung epithelial cells” (PLoS ONE, 2018).

What was measured:
Assay in all cases: kinase selectivity panel
Type in all cases: biochemical
ALK = molecular target: T1, ALK (Homo sapiens, UniProt Q9UM73); details: read-out: percentage of control activity (POC), ALK
T1 construct: purchased Eurofins Pharma Discovery Services (KinaseProfiler; Cerep BioPrint panel)
Method: (§1) Kinase selectivity was evaluated at Eurofins Pharma Discovery Services using a selection of 125 representative kinases tested at a concentration of 10 μM in duplicate (S3 Table). IC50 values for selected activities were further characterized at 9 duplicate concentrations. DNA-PK activity was determined at the SelectScreen® Biochemical kinase Profiling Service of Thermo Fisher Scientific.

CDK1/cyclinB = molecular target: T2, CDK1/cyclinB (Homo sapiens, UniProt P06493); details: read-out: percentage of control activity (POC), CDK1/cyclinB
T2 construct: purchased Eurofins Pharma Discovery Services (KinaseProfiler; Cerep BioPrint panel)
Method: as §1

FGFR4 = molecular target: T3, FGFR4 (Homo sapiens, UniProt P22455); details: read-out: percentage of control activity (POC), FGFR4
T3 construct: purchased Eurofins Pharma Discovery Services (KinaseProfiler; Cerep BioPrint panel)
Method: as §1

Fer = molecular target: T4, Fer (Homo sapiens, UniProt P16591); details: read-out: percentage of control activity (POC), Fer
T4 construct: purchased Eurofins Pharma Discovery Services (KinaseProfiler; Cerep BioPrint panel)
Method: as §1

Fms = molecular target: T5, Fms (Homo sapiens, UniProt P07333); details: for remaining activity at 10 µM: read-out: percentage of control activity (POC), Fms
T5 construct: purchased Eurofins Pharma Discovery Services (KinaseProfiler; Cerep BioPrint panel)
T5 sequence (P07333 20-972): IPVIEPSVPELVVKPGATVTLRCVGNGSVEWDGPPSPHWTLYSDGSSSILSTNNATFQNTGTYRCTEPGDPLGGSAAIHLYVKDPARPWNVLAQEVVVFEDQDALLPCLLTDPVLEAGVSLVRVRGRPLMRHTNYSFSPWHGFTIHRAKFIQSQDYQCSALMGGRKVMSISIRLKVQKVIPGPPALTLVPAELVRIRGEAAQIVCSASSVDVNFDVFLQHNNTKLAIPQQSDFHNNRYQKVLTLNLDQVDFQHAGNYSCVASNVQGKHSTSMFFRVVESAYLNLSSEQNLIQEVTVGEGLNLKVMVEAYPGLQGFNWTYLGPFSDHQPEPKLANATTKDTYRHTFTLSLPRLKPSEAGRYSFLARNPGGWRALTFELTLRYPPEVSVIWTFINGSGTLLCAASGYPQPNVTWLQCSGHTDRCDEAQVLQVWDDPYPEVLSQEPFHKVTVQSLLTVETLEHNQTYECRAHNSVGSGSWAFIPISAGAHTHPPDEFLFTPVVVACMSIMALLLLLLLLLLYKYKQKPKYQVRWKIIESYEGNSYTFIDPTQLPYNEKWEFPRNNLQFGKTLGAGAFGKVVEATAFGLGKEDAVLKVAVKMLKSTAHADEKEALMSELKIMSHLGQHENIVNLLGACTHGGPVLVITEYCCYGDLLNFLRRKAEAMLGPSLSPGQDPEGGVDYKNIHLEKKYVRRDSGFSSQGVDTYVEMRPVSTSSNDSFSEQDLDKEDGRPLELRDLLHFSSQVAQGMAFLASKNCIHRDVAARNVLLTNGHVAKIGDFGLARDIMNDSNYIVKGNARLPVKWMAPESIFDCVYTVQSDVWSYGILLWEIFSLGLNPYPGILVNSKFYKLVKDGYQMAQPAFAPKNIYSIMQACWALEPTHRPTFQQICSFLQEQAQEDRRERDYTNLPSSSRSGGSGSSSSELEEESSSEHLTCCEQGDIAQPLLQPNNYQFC
Method: as §1

IGF-1R = molecular target: T6, IGF-1R (Homo sapiens, UniProt P08069); details: read-out: percentage of control activity (POC), IGF-1R
T6 construct: purchased Eurofins Pharma Discovery Services (KinaseProfiler; Cerep BioPrint panel)
Method: as §1

Itk = molecular target: T7, Itk (Homo sapiens, UniProt Q08881); details: read-out: percentage of control activity (POC), Itk
T7 construct: purchased Eurofins Pharma Discovery Services (KinaseProfiler; Cerep BioPrint panel)
T7 sequence (Q08881 1-620): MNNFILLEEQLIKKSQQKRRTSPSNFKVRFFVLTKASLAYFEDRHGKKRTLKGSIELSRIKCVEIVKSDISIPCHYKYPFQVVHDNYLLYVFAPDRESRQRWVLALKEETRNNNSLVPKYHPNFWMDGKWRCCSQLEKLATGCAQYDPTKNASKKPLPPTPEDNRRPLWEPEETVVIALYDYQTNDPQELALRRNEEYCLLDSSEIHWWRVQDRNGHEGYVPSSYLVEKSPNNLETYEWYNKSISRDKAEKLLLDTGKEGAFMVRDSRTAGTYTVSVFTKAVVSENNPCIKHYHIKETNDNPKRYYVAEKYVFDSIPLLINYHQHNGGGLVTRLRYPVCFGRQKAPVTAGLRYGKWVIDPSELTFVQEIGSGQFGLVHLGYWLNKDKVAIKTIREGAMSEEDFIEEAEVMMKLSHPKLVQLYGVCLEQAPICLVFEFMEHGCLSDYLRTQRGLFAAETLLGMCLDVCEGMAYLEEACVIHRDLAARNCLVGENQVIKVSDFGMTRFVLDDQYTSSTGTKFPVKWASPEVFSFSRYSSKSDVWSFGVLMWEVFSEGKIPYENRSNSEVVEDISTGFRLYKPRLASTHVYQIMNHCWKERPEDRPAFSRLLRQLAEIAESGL
Method: as §1

MKK6 = molecular target: T8, MKK6 (Homo sapiens, UniProt P52564); details: for remaining activity at 10 µM: read-out: percentage of control activity (POC), MKK6
T8 construct: purchased Eurofins Pharma Discovery Services (KinaseProfiler; Cerep BioPrint panel)
T8 sequence (P52564 1-334): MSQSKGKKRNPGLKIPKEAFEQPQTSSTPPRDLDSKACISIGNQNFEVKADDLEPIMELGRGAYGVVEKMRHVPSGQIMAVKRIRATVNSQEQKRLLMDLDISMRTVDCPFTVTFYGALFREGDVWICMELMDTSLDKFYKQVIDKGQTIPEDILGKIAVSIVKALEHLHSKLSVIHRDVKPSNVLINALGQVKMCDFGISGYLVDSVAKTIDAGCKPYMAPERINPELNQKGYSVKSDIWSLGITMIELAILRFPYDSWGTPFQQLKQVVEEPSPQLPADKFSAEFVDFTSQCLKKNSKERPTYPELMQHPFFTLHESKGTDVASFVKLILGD
Method: as §1

MST1 = molecular target: T9, MST1 (Homo sapiens, UniProt Q13043); details: read-out: percentage of control activity (POC), MST1
T9 construct: purchased Eurofins Pharma Discovery Services (KinaseProfiler; Cerep BioPrint panel)
T9 sequence (Q13043 1-487): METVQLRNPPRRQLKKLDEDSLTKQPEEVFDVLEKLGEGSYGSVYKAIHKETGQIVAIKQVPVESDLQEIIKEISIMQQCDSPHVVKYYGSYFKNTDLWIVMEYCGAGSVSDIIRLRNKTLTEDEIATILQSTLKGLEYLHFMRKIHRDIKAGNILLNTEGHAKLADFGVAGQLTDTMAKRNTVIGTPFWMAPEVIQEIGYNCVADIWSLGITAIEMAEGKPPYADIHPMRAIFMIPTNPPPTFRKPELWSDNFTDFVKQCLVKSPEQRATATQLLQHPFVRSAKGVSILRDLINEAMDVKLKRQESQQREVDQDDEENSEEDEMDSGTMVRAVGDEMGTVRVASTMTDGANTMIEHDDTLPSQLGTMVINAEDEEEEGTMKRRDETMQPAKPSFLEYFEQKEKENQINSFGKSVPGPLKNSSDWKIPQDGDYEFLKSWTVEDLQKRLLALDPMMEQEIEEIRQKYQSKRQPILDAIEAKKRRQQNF
Method: as §1

PKCβII = molecular target: T10, PKCβII (Homo sapiens, UniProt P05771); details: read-out: percentage of control activity (POC), PKCβII
T10 construct: purchased Eurofins Pharma Discovery Services (KinaseProfiler; Cerep BioPrint panel)
T10 sequence (P05771 1-673 isoform P05771-2): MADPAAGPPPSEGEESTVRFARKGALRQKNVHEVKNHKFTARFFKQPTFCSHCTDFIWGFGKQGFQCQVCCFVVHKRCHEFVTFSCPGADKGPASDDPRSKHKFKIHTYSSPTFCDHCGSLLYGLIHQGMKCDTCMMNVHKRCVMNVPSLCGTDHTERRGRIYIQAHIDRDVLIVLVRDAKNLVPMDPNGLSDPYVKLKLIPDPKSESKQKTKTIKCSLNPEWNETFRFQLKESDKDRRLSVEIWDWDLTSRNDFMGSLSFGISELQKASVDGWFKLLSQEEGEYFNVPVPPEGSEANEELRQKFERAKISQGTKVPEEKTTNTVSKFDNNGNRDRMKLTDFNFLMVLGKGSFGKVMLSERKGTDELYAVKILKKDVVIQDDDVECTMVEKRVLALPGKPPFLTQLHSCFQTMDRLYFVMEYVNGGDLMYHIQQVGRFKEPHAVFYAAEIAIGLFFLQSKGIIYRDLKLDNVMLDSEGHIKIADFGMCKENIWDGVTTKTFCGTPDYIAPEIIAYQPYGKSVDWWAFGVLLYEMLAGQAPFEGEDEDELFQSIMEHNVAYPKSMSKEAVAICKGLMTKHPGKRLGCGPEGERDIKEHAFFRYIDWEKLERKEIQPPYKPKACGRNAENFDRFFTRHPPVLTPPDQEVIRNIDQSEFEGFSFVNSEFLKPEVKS
Method: as §1

PKCθ = molecular target: T11, PKCθ (Homo sapiens, UniProt Q04759); details: read-out: percentage of control activity (POC), PKCθ
T11 construct: purchased Eurofins Pharma Discovery Services (KinaseProfiler; Cerep BioPrint panel)
T11 sequence (Q04759 whole entry): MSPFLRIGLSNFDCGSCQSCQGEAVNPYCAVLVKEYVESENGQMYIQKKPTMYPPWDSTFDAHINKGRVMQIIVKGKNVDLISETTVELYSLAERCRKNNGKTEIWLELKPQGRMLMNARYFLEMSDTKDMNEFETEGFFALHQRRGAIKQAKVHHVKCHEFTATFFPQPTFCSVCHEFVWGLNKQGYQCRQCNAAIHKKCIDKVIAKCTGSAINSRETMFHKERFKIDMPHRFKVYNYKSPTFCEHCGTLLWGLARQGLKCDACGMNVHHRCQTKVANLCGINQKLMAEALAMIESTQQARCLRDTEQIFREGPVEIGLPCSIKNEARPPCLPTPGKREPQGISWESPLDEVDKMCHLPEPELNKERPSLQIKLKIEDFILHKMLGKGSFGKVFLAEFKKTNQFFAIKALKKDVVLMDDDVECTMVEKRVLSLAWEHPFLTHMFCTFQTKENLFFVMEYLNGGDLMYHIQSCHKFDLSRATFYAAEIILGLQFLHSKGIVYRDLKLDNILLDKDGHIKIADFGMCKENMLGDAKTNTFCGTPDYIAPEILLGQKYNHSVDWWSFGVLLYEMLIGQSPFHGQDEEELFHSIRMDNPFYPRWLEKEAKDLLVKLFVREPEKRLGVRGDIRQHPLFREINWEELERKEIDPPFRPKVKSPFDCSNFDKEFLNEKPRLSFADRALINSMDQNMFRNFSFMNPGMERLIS
Method: as §1

ROCK-I = molecular target: T12, ROCK-I (Homo sapiens, UniProt Q13464); details: read-out: percentage of control activity (POC), ROCK-I
T12 construct: purchased Eurofins Pharma Discovery Services (KinaseProfiler; Cerep BioPrint panel)
T12 sequence (Q13464 whole entry): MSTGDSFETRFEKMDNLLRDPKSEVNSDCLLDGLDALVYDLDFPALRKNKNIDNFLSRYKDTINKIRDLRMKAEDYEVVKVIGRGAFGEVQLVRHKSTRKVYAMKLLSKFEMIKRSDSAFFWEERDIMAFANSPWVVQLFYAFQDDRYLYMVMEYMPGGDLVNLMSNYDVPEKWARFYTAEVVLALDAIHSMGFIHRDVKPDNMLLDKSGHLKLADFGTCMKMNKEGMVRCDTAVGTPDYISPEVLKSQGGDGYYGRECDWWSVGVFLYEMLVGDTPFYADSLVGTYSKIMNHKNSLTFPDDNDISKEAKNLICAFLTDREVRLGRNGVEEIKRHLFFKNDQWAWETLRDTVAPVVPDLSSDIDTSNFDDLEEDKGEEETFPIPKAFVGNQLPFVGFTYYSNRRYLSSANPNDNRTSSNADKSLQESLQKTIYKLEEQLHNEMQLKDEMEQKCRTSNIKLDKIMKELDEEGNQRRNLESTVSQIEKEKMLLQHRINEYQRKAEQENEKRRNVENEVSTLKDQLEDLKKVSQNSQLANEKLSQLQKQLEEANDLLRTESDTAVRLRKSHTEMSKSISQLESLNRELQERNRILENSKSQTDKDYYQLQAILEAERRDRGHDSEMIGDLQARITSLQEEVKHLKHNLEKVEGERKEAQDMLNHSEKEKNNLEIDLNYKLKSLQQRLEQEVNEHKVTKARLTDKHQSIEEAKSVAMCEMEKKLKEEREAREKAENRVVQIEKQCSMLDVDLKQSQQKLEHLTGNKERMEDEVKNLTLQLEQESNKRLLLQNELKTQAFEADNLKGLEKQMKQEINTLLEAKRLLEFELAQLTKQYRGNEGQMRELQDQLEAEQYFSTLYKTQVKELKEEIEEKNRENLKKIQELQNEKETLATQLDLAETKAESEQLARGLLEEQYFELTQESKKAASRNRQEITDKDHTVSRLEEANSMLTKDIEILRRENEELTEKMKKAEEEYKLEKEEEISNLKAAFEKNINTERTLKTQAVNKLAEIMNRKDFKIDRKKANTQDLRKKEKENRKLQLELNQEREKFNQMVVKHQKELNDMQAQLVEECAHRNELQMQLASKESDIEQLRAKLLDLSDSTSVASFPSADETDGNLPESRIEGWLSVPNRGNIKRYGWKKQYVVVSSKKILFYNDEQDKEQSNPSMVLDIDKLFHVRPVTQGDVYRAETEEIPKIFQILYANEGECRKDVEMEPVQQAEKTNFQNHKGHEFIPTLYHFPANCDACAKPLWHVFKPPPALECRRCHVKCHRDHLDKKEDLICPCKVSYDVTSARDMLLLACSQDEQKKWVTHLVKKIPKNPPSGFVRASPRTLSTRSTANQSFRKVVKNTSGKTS
Method: as §1

Rsk3 = molecular target: T13, Rsk3 (Homo sapiens, UniProt Q15349); details: read-out: percentage of control activity (POC), Rsk3
T13 construct: purchased Eurofins Pharma Discovery Services (KinaseProfiler; Cerep BioPrint panel)
T13 sequence (Q15349 whole entry): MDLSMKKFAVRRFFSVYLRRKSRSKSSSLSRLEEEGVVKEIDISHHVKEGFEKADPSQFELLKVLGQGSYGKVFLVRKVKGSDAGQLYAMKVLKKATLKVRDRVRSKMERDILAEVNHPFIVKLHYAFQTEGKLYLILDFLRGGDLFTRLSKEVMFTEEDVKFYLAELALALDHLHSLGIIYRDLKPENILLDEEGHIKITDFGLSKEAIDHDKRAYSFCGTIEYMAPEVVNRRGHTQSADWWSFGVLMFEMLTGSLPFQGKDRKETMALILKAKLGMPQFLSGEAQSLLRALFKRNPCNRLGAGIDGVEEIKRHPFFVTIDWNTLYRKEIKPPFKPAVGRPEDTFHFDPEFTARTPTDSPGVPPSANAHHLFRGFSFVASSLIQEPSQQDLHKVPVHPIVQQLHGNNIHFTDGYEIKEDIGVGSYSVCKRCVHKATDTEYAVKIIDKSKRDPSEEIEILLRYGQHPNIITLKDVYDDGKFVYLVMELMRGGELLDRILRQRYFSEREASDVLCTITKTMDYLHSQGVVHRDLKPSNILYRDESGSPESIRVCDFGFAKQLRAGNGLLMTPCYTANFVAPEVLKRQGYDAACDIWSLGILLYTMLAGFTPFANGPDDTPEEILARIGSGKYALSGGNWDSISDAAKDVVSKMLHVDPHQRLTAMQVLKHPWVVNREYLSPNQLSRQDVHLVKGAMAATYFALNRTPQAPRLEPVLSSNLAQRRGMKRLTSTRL
Method: as §1

SAPK2b = molecular target: T14, SAPK2b (Homo sapiens, UniProt Q15759); details: for inhibition at 10 µM: read-out: inhibition of p38 β(SAPK2β); for remaining activity at 10 µM: read-out: percentage of control activity (POC), SAPK2b
T14 construct: purchased Eurofins Pharma Discovery Services (KinaseProfiler; Cerep BioPrint panel)
T14 sequence (Q15759 whole entry): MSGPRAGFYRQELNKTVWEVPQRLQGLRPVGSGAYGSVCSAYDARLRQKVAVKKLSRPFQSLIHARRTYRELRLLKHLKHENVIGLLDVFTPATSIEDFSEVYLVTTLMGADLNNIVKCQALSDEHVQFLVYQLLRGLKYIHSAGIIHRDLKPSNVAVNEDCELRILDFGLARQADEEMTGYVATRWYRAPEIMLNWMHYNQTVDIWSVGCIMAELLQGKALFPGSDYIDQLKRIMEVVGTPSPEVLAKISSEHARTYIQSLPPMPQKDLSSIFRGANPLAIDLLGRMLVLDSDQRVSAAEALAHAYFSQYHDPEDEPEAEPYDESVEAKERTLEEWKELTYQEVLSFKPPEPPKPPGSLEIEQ
Method: as §1

| SMILES | remaining activity at 10 µM (ALK) [%] | remaining activity at 10 µM (CDK1/cyclinB) [%] | remaining activity at 10 µM (FGFR4) [%] | remaining activity at 10 µM (Fer) [%] | remaining activity at 10 µM (Fms) [%] | remaining activity at 10 µM (IGF-1R) [%] | remaining activity at 10 µM (Itk) [%] | inhibition at 10 µM (MKK6) [%] | remaining activity at 10 µM (MKK6) [%] | remaining activity at 10 µM (MST1) [%] | remaining activity at 10 µM (PKCβII) [%] | remaining activity at 10 µM (PKCθ) [%] | remaining activity at 10 µM (ROCK-I) [%] | remaining activity at 10 µM (Rsk3) [%] | inhibition at 10 µM (SAPK2b) [%] | remaining activity at 10 µM (SAPK2b) [%] | inhibition at 10 µM (Fms) [%] |
| --- | --- | --- | --- | --- | --- | --- | --- | --- | --- | --- | --- | --- | --- | --- | --- | --- | --- |
| CC(C)(C)N1CCC(c2cc(-c3ccc(F)cc3Cl)c3cc[n+]([O-])c(-c4c(Cl)cccc4Cl)c3n2)CC1 [compound 2] | 89 | 100 | 88 | 109 | 100 | 113 | 110 | ~100 | 0 | 103 | 117 | 91 | 97 | 99 | ~100 | -5 | – |
| Cc1ccc(C(=O)NCC2CC2)cc1-c1ccc2c(c1)NC(=O)C21CCCC1 [compound 3] | 77 | 96 | 91 | 102 | 47 | 89 | 103 | ~100 | -3 | 88 | 103 | 97 | 98 | 102 | ~100 | -6 | 53 |
| Cn1cc(-c2cccc(-c3nc(C(=O)NC4C5CC6CC4CC(O)(C6)C5)c(N)nc3N)c2)cn1 (stereo not drawn) [compound 4] | 64 | 64 | 86 | 99 | 63 | 94 | 109 | – | 80 | 58 | 110 | 84 | 91 | 75 | – | 99 | – |
| CS(=O)(=O)N1CCN(c2ccc(Nc3ncc(C(N)=O)c(NC4CC4)n3)cc2)CC1 [compound 5] | 62 | 71 | 73 | 14 | -2 | 64 | 3 | – | 32 | -1 | 80 | 26 | 43 | 0 | – | 82 | – |
| COc1c(NC(=O)c2ccc(C)c(-c3nnc4c(NCC(C)(C)C)nccn34)c2)cc(C(C)(C)C)cc1NS(C)(=O)=O [compound 7, reference compound] | 146 | 101 | 89 | 105 | 26 | 123 | 114 | ~100 | -3 | 101 | 113 | 98 | 108 | 110 | ~100 | -4 | 74 |
